According to patent US5463093A, “Palladium complexes and methods for using same in the treatment of tumors or Psoriasis” (priority 1993, dated 1995):
“Also recorded” adds a separate entry of the source.

Assays:
DNA (CT) = assay: Cyclic voltammetry of charge interactions with DNA; assay type: biochemical
Method: 16, 1993. […] 18, 1993. […] 30, 1993.
The structures of these complexes, as shown in the Examples, were also studied by Fourier transform-infrared spectroscopy (FTIR).
The working electrode used a smile mercury drop, the reference electrode was Ag/AgCl wire in KCl solution housed behind a porous Vycor frit and the counter electrode was Ag/AgCl wire. A reversing scan was performed from either 0 or -0.3 Volt to -1.0 Volts at 20 μA or 100 μA sensitivity and a scan rate of 100 mv/sec. Before the reductase sample was run, 9.0 ml of acetate buffer background electrolyte at pH 5.0 was purged for 8 minutes by vigorous bubbling of nitrogen. The addition of each sample was followed by two minutes of nitrogen purging.
In this example, 1.0 ml of a 5 mg/ml DNA solution was added to 250 μl of a 0.12μ Poly-RC solution. […] This scan was run from 0 to -1.0 volts at 20 μA sensitivity.
The amount of energy transferred is calculated from the shift in the voltage and current coordinates in terms of the Nernst relation. This interpretation of shifts in electro-potential curves follows the interpretations of electrochemistry literature, e.g., Maloy, "Factors Affecting the Shape of Current Potential Curves," I. Chem. Ed., 60(4):285-289 (April 1983); Rieger, Electrochemistry, Prentice Hall (1987); and Riley et al., Principles of Electroanalytical Methods, John Wiley (1987).
FIG. 6A was run from 0 to -1.0 volts at 100 μA sensitivity, while Rigure 6B was run from -0.3 to -1.0 volts at 20 μA sensitivity.
Both scans were run from -0.3 to -1.0 volts at 20 μA sensitivity. […] Biochem, 51(1 and 2):221 (August 1993).

tumors = assay: Compassionate IND studies in tumor patients; assay type: in vivo, human; conditions: for liquefaction of carcinomas, adenocarcinomas, melanomas and metastases / shrinkage of carcinomas, adenocarcinomas, melanomas and metastases: patients
From the text: (§1) Data reporting therapeutic effects are best presented by independent institutional protocols. Compassionate Investigational New Drug studies in humans involving administration of the novel polynucleotide reductases were begun in November of 1992 and are presently ongoing.
However, the precise route of administration, dosage and frequency of administration is individualized for each patient and can vary over a wide range depending on the particular disease state being treated, the condition of the patient and the like.

[1] = UV spectroscopy after air oxidation of the solution; assay type: physicochemical; conditions: ninety days of air oxidation of the solution; UV spectra
From the text: There is no UV peak. FIGS. 2B and 2C show ultraviolet spectra of Pd-Lipoic Acid Complex (Poly-RC) with a concentration of 2×10^-6 M in FIG. 2B and 10^-6 M in FIG. 2C. FIGS. 2D and 2E show ultraviolet absorbance spectra of oxidized Poly RC after ninety days of air oxidation of the solution (experiment conducted Jun 11, 1993). In FIGS. 2D and 2E, the concentration is 0.00012 M. In FIG. 2D, the spectrum is ended at 400.0 nm and 0.542 A, and a reference peak is at 289.0 nm and 0.75 A. In FIG. 2E, the spectrum is ended at 550.0 nm and 0.036 A, and a reference peak is at 396.0 nm and 0.553 A. FIG. 2F illustrates the absorbance spectra of Pd-lipoic acid complexes at varying ratios of palladium to lipoic acid at a Pd concentration of 5×10^-5 M. The ratios are 1 Pd: 1 lipoic=n 1, 1 Pd: 2 lipoic=n 2, and 1 Pd: 3 lipoic=n 3. […] The reference peak of B12 is at 361.2 nm and 0.042 A and the reference peak of B12 Ac is at 358.6 nm and 0.044 A.
After ninety days of air oxidation of the Poly-RC solution, an ultraviolet spectra was again obtained on the Shimadzu UV spectrophotometer. In both instances, a 1.2×10^-4 μ solution was employed. […] FIG. 2E illustrates the visible range of the Poly RC, in which range an inflection is estimated as occurring at 396 nm. These spectra showing a shift from the fresh Poly RC solution are consistent with the view that Poly RC is a redox complex.

[2] = system: Brewer's yeast (Saccharomyces cerevisae) / Baker's yeast; assay: Induction of new yeast form (cell morphology, phase microscopy); assay type: cell-based; conditions: Poly-R2 10^-7 M, 30 minutes at 28° C.
Method: Brewer's yeast (Saccharomyces cerevisae) was cultured in 2.0% malt extract and 2.0% sucrose.
The yeast was incubated for 30 minutes at 28° C. and examined under phase microscopy.

[3] = system: metastatic lesions to the liver; conditions: patients with metastatic lesions to the liver
From the text: as §1

| Substance | charge interaction of Poly-RC with DNA (voltammetric wave) (DNA (CT); 250 μl of 0.12 M Poly-RC + 1.0 ml DNA 5 mg/ml, 0 to -1.0 volts, 20 μA) | liquefaction of carcinomas, adenocarcinomas, melanomas and metastases (tumors) | shrinkage of carcinomas, adenocarcinomas, melanomas and metastases (tumors) | redox state after air oxidation [1] | magnitude of voltammetric shifts with DNA (DNA (CT); Poly-R2 compared with Poly-RC) | reduction of DNA (DNA (CT); cyclic voltammetry) | loss of lipid droplets during giantization of yeast cells ([2]; FIG. 8B) | altered cell morphology of yeast cells ([2]; phase microscopy) | reduction in tumor size (tumors; terminally ill patients, objective criteria) | relief of symptoms caused by various cancers (tumors; terminally ill patients, subjective) | enlargement of the liver [3] | serum albumen levels [3] |
| --- | --- | --- | --- | --- | --- | --- | --- | --- | --- | --- | --- | --- |
| palladium-lipoic acid complex [Poly-RC] | double peaked catalytic wave of Poly-RC was altered on the addition of DNA; also recorded: current had dropped and voltage had moved in the oxidative direction; also recorded: DNA oxidizes Poly-RC | developing non-hemorrhagic central liquefaction | shrinking | in the oxidative state |  |  |  |  |  |  |  |  |
| thiamine salt of a palladium-lipoic acid complex [Poly-R2] |  | developing non-hemorrhagic central liquefaction | shrinking |  | greater magnitude | can reduce both DNA and RNA | lipid droplets are lost from the cell; also recorded: lipid drops are lost from the cell | Large fiat cells were one kind of new variety; also recorded: altered cell morphology of yeast cells | reduction in tumor size by objective criteria | subjective relief of symptoms | no longer palpable | return to normal |
